Test results published in patent US12208080B2, “Compositions and methods for modulation of extracellular vesicle release and treatment of neurological disorders” (GEORGE MASON RESEARCH FOUNDATION, INC., priority 2018, dated 2025).

Tests used:
Assay type in all cases: cell-based
[1] = system: HIV-1 infected U1 monocytic cells; experiment: MTT cell viability assay; conditions: CBD 1, 5, 10 μM, THC 1, 5, 10 μg/ml, 5 days, FIG. 7
Description: FIG. 7 is a graph showing cell viability analysis of cannabidiol components on HIV-1 infected monocytes. HIV-1 infected U1 monocytic cells (1×10^6) were treated with CBD (green bars) at 1, 5, 10 and 50 μM) or THC (blue bars) at 1, 5, 10 and 50 μg/mL) every day for 5 days. Cell viability was determined using the MTT assay. Student's t-test was used for statistical analysis, where n.s is not significant, *p-value≤0.05; **p-value≤0.01, ***p-value≤0.001.
Cells were cultured in RPMI with 10% exosome-free FBS at 10^6 cells per well in 6 well plates. Cells were treated with 0.005% ethanol (control), CBD (1, 5 10, 50 μm) and THC (1, 5, 10, 50 μg/mL) once per day for 5 days. The MTT assay was used to measure cell death according to manufacturer's protocol (Sigma). After incubating with MTT solution for 2 h, the culture medium was aspirated and 1 mL of MTT solvent was added to each well. Cell viability was determined by the formation of formazan crystal and measured by absorbance at 590 nm and 620 nm, as previously described (Cotto et al., 2018, Cocaine and HIV-1 Tat Disrupt Cholesterol Homeostasis in Astrocytes: Implications for HIV-Associated Neurocognitive Disorders in Cocaine User Patients. Glia, 66(4), 889-902).
(§1) Supernatants were harvested and analyzed using ZetaView NTA.

[2] = system: HIV-1 infected monocytes (U1); experiment: ZetaView nanoparticle tracking analysis of EVs released from HIV-1 infected U1 monocytes; conditions: 5 days; for EV diameter (mean, median, peak): 1, 5, 10 μM or μg/mL, FIG. 8B-D; for release of EVs (EV concentration) / size of the EV (mean size): 1, 5, 20, 50 μM; for release of EVs (EV concentration): FIG. 2A; for size of the EV (mean size): FIG. 2B
Description: HIV-1 infected monocytes (U1) were treated with cannabidiol (“CBD”) (1, 5, 20, and 50 μM) or with tetrahydrocannabinol (“THC”) (1, 5, 20, and 50 μM) for 5 days. The supernatants from the treated cells were analyzed by Zeta View Nanoparticle Tracking analysis for changes in concentration. Student's t-test was used to determine significance (***=p<0.001, **=p<0.01, *=p<0.05).
HIV-1 infected monocytes (U1) were treated with cannabidiol (“CBD”) (1, 5, 20, and 50 μM) or with tetrahydrocannabinol (“THC”) (1, 5, 20, and 50 μM) for 5 days. The supernatants from the treated cells were analyzed by Zeta View Nanoparticle Tracking analysis for changes in mean size. Student's t-test was used to determine significance (***=p<0.001, **=p<0.01, *=p<0.05).
FIGS. 8A-8D are graphs showing Cannabis components lower EVs released from HIV-1 infected monocytes. HIV-1 infected U1 monocytic cells (1×10^6) were treated with a titration of CBD (1, 5, and 10 μM) and THC (1, 5, and 10 μg/mL) every day for 5 days. Cells were pelleted and supernatant was used for Zetaview NTA analysis to determine (A) EV concentration, (B) median size, (C) mean size, and (D) peak size. Each bar represents an average of three independent replicates. Student's t-test was used for statistical analysis, where *p-value≤0.05; **p-value≤0.01, ***p-value≤0.001.
HIV-1 infected monocytes (U1) were treated with a titration of CBD (1, 5, 20, and 50 μM) or a titration of THC (1, 5, 20, and 50 μM) for 5 days. Resulting supernatants from the treated cells were analyzed by Zeta View Nanoparticle Tracking analysis for changes in concentration (FIG. 2A) or mean size (FIG. 2B).
NTA was performed with the ZetaView Z-NTA (Particle Metrix) and its software (ZetaView 8.04.02). The machine was calibrated according to manufacturer's protocol. Following the measurement and removal of any outliers from the measured 11 positions, the mean size (diameter; nm) and the concentration of the sample (EV number) were analyzed by the associated ZetaView software. Measurement data from the ZetaView were used to calculate averages and standard deviations from technical triplicates using Microsoft Excel 2016.
as §1
To verify that the observed decrease in EVs was not the result of modifications in packaging of various cargos into larger EVs, the mean diameter size (FIG. 8B), median diameter size (FIG. 8C), and peak diameter size (FIG. 8D) were also analyzed.

[3] = system: HIV-1 infected monocytes (U1); experiment: Western blot/densitometry of EV-associated proteins (NT80/82-enriched supernatant) from U1 cells; conditions: for CD81 (EV marker) in EVs / EV-associated Nef / EV-associated gp120: 1, 5, 20, 50 μM, FIG. 2C; for EV CD81 level / EV-associated Nef (30 kDa) / EV-associated myristoylated Nef dimer (70 kDa): CBD 1, 5, 10 μM, THC 1, 5, 10 μg/mL, FIG. 9A; for increase in EV-associated gp160 (densitometry): maximum, CBD lane 4 (10 μM), THC lane 7 (10 μg/mL)
[4] = system: HIV-1 infected monocytes (U1); experiment: RT-qPCR of EV-associated HIV-1 TAR and env RNA from U1 cells; conditions: 5 days; for incorporation of TAR RNA into EVs / incorporation of env RNA into EVs: 1, 5, 20, 50 μM; for incorporation of TAR RNA into EVs: FIG. 3A; for incorporation of env RNA into EVs: FIG. 3B; for env RNA within EVs: FIG. 9C; for reduction in TAR RNA within EVs: average from two replicates
[5] = CBD 1, 5, 10 μM, THC 1, 5, 10 μg/mL

SMILES	cell viability [1]	EV diameter (mean, median, peak) [2]	release of EVs (EV concentration) [2]	size of the EV (mean size) [2]	CD81 (EV marker) in EVs ([3]; U1, 5 days)	EV-associated Nef ([3]; U1, 5 days)	EV-associated gp120 ([3]; U1, 5 days)	EV CD81 level ([3]; U1, 5 days)	EV-associated Nef (30 kDa) ([3]; U1, 5 days)	EV-associated myristoylated Nef dimer (70 kDa) ([3]; U1, 5 days)	increase in EV-associated gp160 (densitometry) [3]	incorporation of TAR RNA into EVs [4]	incorporation of env RNA into EVs [4]	env RNA within EVs [4, 5]	other results
CCCCCc1cc(O)c2c(c1)OC(C)(C)[C@@H]1CCC(C)=C[C@@H]21 [THC, Δ9-tetrahydrocannabinol]	no effects on cell viability	little to no change in diameter	significantly reduced the release of EVs	without altering the size of the EV	reduction in CD81	dose-dependent decrease	dose-dependent decrease	decrease in CD81	dose-dependent decrease	dose-dependent decrease	≤ 57%	statistically significant, dose-dependent decrease	statistically significant, dose-dependent decrease	reduction	number of EVs released ([2]; 1, 5, 10 μg/mL, FIG. 8A lanes 5-7, less drastic than CBD): significant reduction in the number of EVs; decrease in EV-associated myristoylated Nef dimer (70 kDa), densitometry ([3]; greatest reduction, lane 7 (THC 10 μg/mL), FIG. 10): up to 37%
C=C(C)[C@@H]1CCC(C)=C[C@H]1c1c(O)cc(CCCCC)cc1O [CBD, 2-[1R-3-methyl-6R-(1-methylethenyl)-2-cyclohexen-1-yl]-5-pentyl-1,3-benzenediol]	no effects on cell viability	little to no change in diameter	significantly reduced the release of EVs	without altering the size of the EV	reduction in CD81	dose-dependent decrease	dose-dependent decrease	decreased	dose-dependent decrease	dose-dependent decrease	up to 125%	statistically significant, dose-dependent decrease	statistically significant, dose-dependent decrease	reduction	decrease in EVs compared to untreated control ([2]; 1 μM, FIG. 8A lane 2): 44%; decrease in EVs compared to untreated control ([2]; 5 μM, FIG. 8A lane 3): 76%; decrease in EVs compared to untreated control ([2]; 10 μM, FIG. 8A lane 4): 79%; reduction in EV-associated gp120 (densitometry) ([3]; U1, CBD 1, 5, 10 μM (lanes 2-4), 5 days): 39-58%; reduction in EV CD81 expression (densitometry) ([3]; U1, low titer CBD (lane 2, 1 μM), 5 days, FIG. 10A): 80%; decrease in EV-associated Nef (30 kDa), densitometry ([3]; greatest reduction, lane 3 (CBD 5 μM), FIG. 10): up to 79%; reduction in TAR RNA within EVs ([4]; 5 μM, FIG. 9B): 55%; reduction in TAR RNA within EVs ([4]; 10 μM, FIG. 9B): 86%; dose-dependent decrease in EV-associated TAR RNA ([4]; CBD 1, 5, 10 μM, THC 1, 5, 10 μg/mL, FIG. 9B): dose-dependent decrease
